Data on 26 molecules can be found in patent US20250382274A1, “COMPOSITIONS AND METHODS FOR THE TREATMENT OF PARKINSON'S AND GAUCHER DISEASE” (CHILDREN'S HOSPITAL MEDICAL CENTER, priority 2024, published 2025).

One may read the AC50 as the concentration giving half of the maximal activity seen. Low values mean greater potency, high ones weaker potency. By EC50 is commonly meant the midpoint of the concentration-response curve. Read a low EC50 as a more potent agent.

In test [1] the target is T1, GCase (purified enzyme, Velaglucerase alfa, VPRIV) (Homo sapiens, UniProt P04062).
T1 construct: purchased Shire Human Genetic Therapies, Cambridge, MA
T1 sequence (P04062 40-536): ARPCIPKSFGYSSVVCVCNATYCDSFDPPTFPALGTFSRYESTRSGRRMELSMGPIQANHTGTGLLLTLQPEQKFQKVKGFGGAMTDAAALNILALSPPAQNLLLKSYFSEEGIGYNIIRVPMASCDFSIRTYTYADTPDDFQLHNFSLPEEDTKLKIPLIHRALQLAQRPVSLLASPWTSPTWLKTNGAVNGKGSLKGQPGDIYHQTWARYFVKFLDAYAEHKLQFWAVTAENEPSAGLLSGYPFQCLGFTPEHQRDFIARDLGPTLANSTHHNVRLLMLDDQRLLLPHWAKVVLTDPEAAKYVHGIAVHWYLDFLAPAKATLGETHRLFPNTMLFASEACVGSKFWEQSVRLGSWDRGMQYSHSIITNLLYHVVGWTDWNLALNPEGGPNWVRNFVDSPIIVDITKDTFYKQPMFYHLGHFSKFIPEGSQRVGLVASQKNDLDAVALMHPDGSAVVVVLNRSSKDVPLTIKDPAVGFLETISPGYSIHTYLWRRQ
Description: GCase AC50 enzyme activity assay. It is filed as biochemical. Conditions: pH 5.6, 4-MuGlu substrate, compounds 0-40 μM. The method, then:
An in vitro enzyme assay was performed through a dose response curve of Compounds (0-40 μM) with purified enzyme (Velaglucerase alfa, VPRIV®, Shire Human Genetic Therapies, Cambridge, MA) in citric phosphate [0.025 mM] buffer (pH 5.6) where 4-MuGlu [4 mM] was the substrate. Compounds were pre-incubated with the enzyme for 40 minutes at room temperature prior to substrate addition, and then incubated at 37° C. for 1 hour. AC50 represents the concentration of a Compound that produces 50% of its maximal response in the in vitro GCase activity assay.
(§1) GCase activities were determined fluorometrically with 4-MuGlu. The relative fluorescence unit (RFU) of 4-MuGlu standard curve is generated with the plate reader (M5, Molecular Devise) as 1 n mole=56500 RFU. The human mutant Gaucher fibroblasts were purchased from Coriell Institute (Camden, NJ): N370/ΔGG (Cat #: GM00852) and L444P/L444P (cat #: GM00877)

Test [2] addresses T2, GCase in healthy human fibroblasts (Homo sapiens, UniProt P04062).
T2 construct: Healthy human fibroblasts (GCase cell); endogenous in cells; host or cells: healthy human fibroblasts
T2 sequence (P04062 40-536): T1 sequence (P04062 40-536)
The test is described as follows: EC50 cell-based assay for GCase, healthy human fibroblasts (GCase cell). As to conditions: 5 days compound treatment (0-20 μM). The method, then:
In cell assays, GCase activity measurements were carried out on harvested cell pellets on the 5th day of Compound treatment. Healthy human fibroblasts (GCase cell), mutant N370/ΔGG (GCase N370S) or L444P/L444P (GCase L444P) were incubated with the Compound (0-20 μM) for 5 days with 15% fetal bovine serum (FBS) in Dulbecco's Modified Eagle Medium (DMEM) in 100 mm culture dishes. Fresh Medium with Compound were replaced every other day. On the 5th day of Compound treatment, harvested cell pellets were lysed with 1% Na-taurocholate (Tc) and 1% Triton X-100 (Tx), and mixed with the reaction buffer which contained 0.025 mM Citric phosphate buffer (pH 5.6), 0.25% Tc/Tx and 4 mM 4-MuGlu, then incubated at 37° C. for 1 hour. EC50 represents the concentration of a Compound that produces 50% of its maximal response in the cell-based GCase activity assay.
as §1

`CN(CC1CCCO1)C(=O)c1ccccc1OCC(=O)Nc1ccc(Br)cc1` (centres unmarked) [Compound 1, 2-((4-bromophenylcarbamoyl)methoxy)-N-((tetrahydrofuran-2-yl)methyl)-N-methylbenzamide]: the concentration at half-maximal activity (AC50) in test [1] was below 10 µM. In addition, the EC50 in test [2] was below 10 µM. Regarding `O=C(Nc1ccc(Br)cc1)c1cc2cccc(C(=O)NCC3CCCO3)c2o1` (centres unmarked) [Compound 3, N2-(4-bromophenyl)-N7-((tetrahydrofuran-2-yl)methyl)benzofuran-2,7-dicarboxamide], the AC50 in test [1] was below 10 µM. The same molecule yielded a 50% effective concentration (EC50) in test [2] below 10 µM. Take `COc1ccc(NC(=O)c2cc3cccc(C(=O)NCC4CCCO4)c3o2)cc1` (centres unmarked) [Compound 5, N7-((tetrahydrofuran-2-yl)methyl)-N2-(4-methoxyphenyl)benzofuran-2,7-dicarboxamide]: in test [1], the AC50 is below 10 µM. Further, in test [2], the EC50 is below 10 µM. In the case of `COc1c(C(=O)Nc2ccc(Br)cc2)oc2c(C(=O)NCC3CCCO3)cccc12` (centres unmarked) [Compound 6, N2-(4-bromophenyl)-N7-((tetrahydrofuran-2-yl)methyl)-3-methoxybenzofuran-2,7-dicarboxamide], the AC50 in test [1] is below 10 µM. This molecule registered an EC50 in test [2] below 10 µM. Regarding `COc1ccc(NC(=O)C(C)(C)Oc2ccccc2C(=O)N2CCOCC2)cc1` [Compound 7], in test [1], the concentration at half-maximal activity (AC50) is below 10 µM. In test [2], the EC50 was below 10 µM. As to `CN(C)Cc1ccc(NC(=O)c2nc3cccc(C(=O)NCC4CCCO4)c3o2)cc1` (centres unmarked) [Compound 9, N2-(4-((dimethylamino)methyl)phenyl)-N7-((tetrahydrofuran-2-yl)methyl)benzo[d]oxazole-2,7-dicarboxamide], the AC50 in test [1] is below 10 µM. The molecule also showed an EC50 in test [2] below 10 µM. Regarding `COc1ccc(NC(=O)Cc2nnc(NCC3CCCO3)c3ccccc23)cc1` (centres unmarked) [Compound 11, 2-(1-((tetrahydrofuran-2-yl)methylamino)phthalazin-4-yl)-N-(4-methoxyphenyl)acetamide], the half-maximal activity concentration (AC50) in test [1] is below 10 µM. Moreover, in test [2], the concentration for a half-maximal effect (EC50) is below 10 µM.

For the molecule `COc1ccc2[nH]c(COc3ccccc3C(=O)NCC3CCCO3)nc2c1` (centres unmarked) [Compound 12, 2-((5-methoxy-1H-benzo[d]imidazol-2-yl)methoxy)-N-((tetrahydrofuran-2-yl)methyl)benzamide], in test [1], the AC50 was below 10 µM. The molecule also displayed an EC50 in test [2] below 10 µM.

`COc1ccc(NC(=O)c2nc3cc(F)cc(C(=O)NCC4CCO4)c3o2)cc1` (centres unmarked) [Compound 13, 5-fluoro-N2-(4-methoxyphenyl)-N7-(oxetan-2-ylmethyl)-1,3-benzoxazole-2,7-dicarboxamide] showed an AC50 in test [1] below 10 µM. For the same molecule, the EC50 in test [2] was below 10 µM. `COc1ccc(NC(=O)c2nc3cc(F)cc(C(=O)NCC4CCO4)c3o2)cc1F` (centres unmarked) [Compound 14, 5-fluoro-N2-(3-fluoro-4-methoxy-phenyl)-N7-(oxetan-2-ylmethyl)-1,3-benzoxazole-2,7-dicarboxamide] registered a half-maximal activity concentration (AC50) in test [1] below 10 µM. The molecule `COc1ccc(NC(=O)c2nc3c(F)ccc(C(=O)NCC4CCO4)c3o2)cc1` (centres unmarked) [Compound 15, 4-fluoro-N2-(4-methoxyphenyl)-N7-(oxetan-2-ylmethyl)-1,3-benzoxazole-2,7-dicarboxamide] returned an AC50 in test [1] below 10 µM. On the same count and under the same terms, the same measure for `O=C(Nc1ccc(CN2CCOCC2)cc1)c1nc2cccc(C(=O)NCC3CCO3)c2o1` (centres unmarked) [Compound 16, N2-[4-(morpholinomethyl)phenyl]-N7-(oxetan-2-ylmethyl)-1,3-benzoxazole-2,7-dicarboxamide]: below 10 µM.

On to `CC(C)(Oc1ccccc1C(=O)NCC1CCO1)C(=O)NC1CCN(CC(F)F)CC1` (centres unmarked) [Compound 17, 2-[2-[[1-(2,2-difluoroethyl)-4-piperidyl]amino]-1,1-dimethyl-2-oxo-ethoxy]-N-(oxetan-2-ylmethyl)benzamide], for which the half-maximal activity concentration (AC50) in test [1] was below 10 µM. This molecule registered a concentration for a half-maximal effect (EC50) in test [2] below 10 µM.

In turn, `CC(C)(Oc1ccccc1C(=O)NCC1CCO1)C(=O)NC1CCN(C2COC2)CC1` (centres unmarked) [Compound 18, 2-[1,1-dimethyl-2-[[1-(oxetan-3-yl)-4-piperidyl]amino]-2-oxo-ethoxy]-N-(oxetan-2-ylmethyl)benzamide] returned an AC50 in test [1] below 10 µM. Further, in test [2], the EC50 is below 10 µM.

In turn, `O=C(NC1CCOCC1)c1nc2cc(F)cc(C(=O)NCC3CCO3)c2o1` (centres unmarked) [Compound 19, 5-fluoro-N2-(tetrahydro-2H-pyran-4-yl)-N7-((oxetan-2-yl)methyl)benzo[d]oxazole-2,7-dicarboxamide] returned a half-maximal activity concentration (AC50) in test [1] below 10 µM. In test [2], this molecule showed an EC50 below 10 µM. Consider `Cc1cc(NC(=O)c2nc3cc(F)cc(C(=O)NCC4CCO4)c3o2)ccn1` (centres unmarked) [Compound 20, 5-fluoro-N2-(2-methylpyridin-4-yl)-N7-((oxetan-2-yl)methyl)benzo[d]oxazole-2,7-dicarboxamide], for which the AC50 in test [1] is below 10 µM. Also, in test [2], the EC50 was below 10 µM. Consider `O=C(Nc1ccc(Cl)cc1)c1nc2cc(F)cc(C(=O)NCC3CCO3)c2o1` (centres unmarked) [Compound 21, N2-(4-chlorophenyl)-5-fluoro-N7-((oxetan-2-yl)methyl)benzo[d]oxazole-2,7-dicarboxamide], for which the concentration at half-maximal activity (AC50) in test [1] was below 10 µM. In addition, the EC50 in test [2] is below 10 µM. For the molecule `O=C(Nc1ccc(OC(F)(F)F)cc1)c1nc2cc(F)cc(C(=O)NCC3CCO3)c2o1` (centres unmarked) [Compound 22, 5-fluoro-N7-((oxetan-2-yl)methyl)-N2-(4-(trifluoromethoxy)phenyl)benzo[d]oxazole-2,7-dicarboxamide], the AC50 in test [1] was below 10 µM. This molecule also gave an EC50 in test [2] below 10 µM. Regarding `CN(CC1CCO1)C(=O)c1cc(F)ccc1OC(C)(C)C(=O)NC1CCOCC1` (centres unmarked) [Compound 23, 2-(2-(tetrahydro-2H-pyran-4-ylcarbamoyl)propan-2-yloxy)-5-fluoro-N-methyl-N-((oxetan-2-yl)methyl)benzamide], the AC50 in test [1] is below 10 µM. Also, in test [2], the EC50 is below 10 µM.

In turn, `CN1CCC(NC(=O)C(C)(C)Oc2ccc(F)cc2C(=O)NCC2CCO2)C(F)(F)C1` (centres unmarked) [Compound 24, 2-(2-(3,3-difluoro-1-methylpiperidin-4-ylcarbamoyl)propan-2-yloxy)-5-fluoro-N-((oxetan-2-yl)methyl)benzamide] showed an AC50 in test [1] below 10 µM. The molecule further gave an EC50 in test [2] below 10 µM. `O=C(NCC1CCO1)c1cc(F)ccc1OCc1nc2cc(Cl)ccc2[nH]1` (centres unmarked) [Compound 25, 2-((6-chloro-1H-benzo[d]imidazol-2-yl)methoxy)-5-fluoro-N-((oxetan-2-yl)methyl)benzamide] gave a half-maximal activity concentration (AC50) in test [1] below 10 µM. The same molecule had an EC50 in test [2] below 10 µM. `CC(C)(Oc1ccc(F)cc1C(=O)NCC1CCO1)C(=O)NCCN1CCOCC1` (centres unmarked) [Compound 27, 2-[1,1-dimethyl-2-(2-morpholinoethylamino)-2-oxo-ethoxy]-5-fluoro-N-(oxetan-2-ylmethyl)benzamide] displayed an AC50 in test [1] below 10 µM. This molecule also registered a 50% effective concentration (EC50) in test [2] below 10 µM. As for `O=C(NC1CCC(F)(F)CC1)c1nc2cc(F)cc(C(=O)NCC3CCO3)c2o1` (centres unmarked) [Compound 28, N2-(4,4-difluorocyclohexyl)-5-fluoro-N7-(oxetan-2-ylmethyl)benzo[d]oxazole-2,7-dicarboxamide], the AC50 in test [1] lay within 10 to 100 µM. In test [2], this molecule displayed an EC50 below 10 µM. Molecule `O=C(NC1CCN(CC(F)(F)F)CC1)c1nc2cc(F)cc(C(=O)NCC3CCO3)c2o1` (centres unmarked) [Compound 29, 5-fluoro-N7-(oxetan-2-ylmethyl)-N2-(1-(2,2,2-trifluoroethyl)piperidin-4-yl)benzo[d]oxazole-2,7-dicarboxamide] had an AC50 in test [1] of 10 to 100 µM.

Take `COc1ccc(NC(=O)N2Cc3cccc(C(=O)NCC4CCO4)c3C2)cc1` (centres unmarked) [Compound 30, N2-(4-methoxyphenyl)-N4-((oxetan-2-yl)methyl)isoindoline-2,4-dicarboxamide]: the concentration at half-maximal activity (AC50) in test [1] was below 10 µM. In addition, the EC50 in test [2] was below 10 µM.

In the case of `CC(C)(Oc1ccc(F)cc1C(=O)NCC1CCO1)C(=O)Nc1ccc(OC(F)F)cc1` (centres unmarked) [Compound 31, 2-((1-((4-(difluoromethoxy)phenyl)amino)-2-methyl-1-oxopropan-2-yl)oxy)-5-fluoro-N-(oxetan-2-ylmethyl)benzamide], the AC50 in test [1] is below 10 µM.
